Measurements reported in patent US20230374038A1, “MODULATORS OF CYSTIC FIBROSIS TRANSMEMBRANE CONDUCTANCE REGULATOR” (VERTEX PHARMACEUTICALS INCORPORATED, priority 2020, published 2023).

Target: CFTR (Homo sapiens, UniProt P13569)
Assay: Membrane Potential Dye, Enteroid Assay B
Format: cell-based
Details: for EC50: read-out: Ent. B EC50
Method: Base medium (ADF+++) consisted of Advanced DMEM/Ham's F12, 2 mM Glutamax, 10 mM HEPES, 1 µg/mL penicillin/streptomycin.
Intestinal enteroid maintenance medium (IEMM) consisted of ADF+++, 1× B27 supplement, 1× N2 supplement, 1.25 mM N-acetyl cysteine, 10 mM Nicotinamide, 50 ng/mL hEGF, 10 nM Gastrin, 1 pg/mL hR-spondin-1, 100 ng/mL hNoggin, TGF-b type 1 inhibitor A-83-01, 100 μg/mL Primocin, […] P38 MAPK inhibitor SB202190.
Bath 1 Buffer consisted of 1 mM MgCl2, 160 mM NaCl, 4.5 mM KCl, 10 mM HEPES, 10 mM Glucose, 2 mM CaCl2).
Chloride Free Buffer consisted of 1 mM Magnesium Gluconate, 2 mM Calcium Gluconate, 4.5 mM Potassium Gluconate, 160 mM Sodium Gluconate, 10 mM HEPES, 10 mM Glucose.
Bath1 Dye Solution consisted of Bath 1 Buffer, 0.04% Pluronic F127, […] Methyl Oxonol, 30 μM CaCCinh-A01, 30 μM Chicago Sky Blue.
Chloride Free Dye Solution consisted of Chloride Free Buffer, 0.04% Pluronic F127, 20 μM Methyl Oxonol, 30 μM CaCCinh-A01, 30 μM Chicago Sky Blue.
Chloride Free Dye Stimulation Solution consisted of Chloride Free Dye Solution, 10 μM forskolin, 100 μM IBMX, and 300 nM Compound III.
Human intestinal epithelial enteroid cells were obtained from the Hubrecht Institute for Developmental Biology and Stem Cell Research, Utrecht, The Netherlands and expanded in T-Flasks as previously described (Dekkers J F, Wiegerinck C L, de Jonge H R, Bronsveld I, Janssens H M, de Winter-de Groot K M, Brandsma A M, de Jong N W M, Bijvelds M J C, Scholte B J, Nieuwenhuis E E S, van den Brink S, Clevers H, van der Ent C K, Middendorp S and M Beekman J M. A functional CFTR assay using primary cystic fibrosis intestinal organoids. Nat Med. 2013 July; 19(7):939-45.).
Cells were recovered in cell recovery solution, collected by centrifugation at 650 rpm for 5 min at 4° C., resuspended in TryPLE and incubated for 5 min at 37° C. Cells were then collected by centrifugation at 650 rpm for 5 min at 4° C. and resuspended in IEMM containing 10 μM ROCK inhibitor (RI). The cell suspension was passed through a 40 μm cell strainer and resuspended at 1×10^6 cells/mL in IEMM containing 10 μM RI. Cells were seeded at 5000 cells/well into multi-well plates and incubated for overnight at 37° C., 95% humidity and 5% CO2 prior to assay.
Enteroid cells were incubated with test compound in IEMM for 18-24 hours at 37° C., 95% humidity and 5% CO2. […] Briefly, cells were washed 5 times in Bath 1 Buffer. Bath 1 Dye Solution was added and the cells were incubated for 25 min at room temperature. Following dye incubation, cells were washed 3 times in Chloride Free Dye Solution. Chloride transport was initiated by addition of Chloride Free Dye Stimulation Solution and the fluorescence signal was read for 15 min. […] Chloride transport was then expressed as a percentage of the chloride transport following treatment with 1 μM (14S)-8-[3-(2-{Dispiro[2.0.2.1]heptan-7-yl}ethoxy)-1H-pyrazol-1-yl]-12,12-dimethyl-2λ^6-thia-3,9,11,18,23-pentaazatetracyclo[17.3.1.111,14.05,10]tetracosa-1(22),5,7,9,19(23),20-hexaene-2,2,4-trione, 3 μM (R)-1-(2,2-difluorobenzo[d][1,3]dioxol-5-yl)-N-(1-(2,3-dihydroxypropyl)-6-fluoro-2-(1-hydroxy-2-methylpropan-2-yl)-1H-indol-5-yl)cyclopropanecarboxamide and 300 nM acute N-[2,4-bis(1,1-dimethylethyl)-5-hydroxyphenyl]-1,4-dihydro-4-oxoquinoline-3-carboxamide triple combination control (% Activity).

Sequence of CFTR (P13569 with tags, fused parts or gaps DEL508-508): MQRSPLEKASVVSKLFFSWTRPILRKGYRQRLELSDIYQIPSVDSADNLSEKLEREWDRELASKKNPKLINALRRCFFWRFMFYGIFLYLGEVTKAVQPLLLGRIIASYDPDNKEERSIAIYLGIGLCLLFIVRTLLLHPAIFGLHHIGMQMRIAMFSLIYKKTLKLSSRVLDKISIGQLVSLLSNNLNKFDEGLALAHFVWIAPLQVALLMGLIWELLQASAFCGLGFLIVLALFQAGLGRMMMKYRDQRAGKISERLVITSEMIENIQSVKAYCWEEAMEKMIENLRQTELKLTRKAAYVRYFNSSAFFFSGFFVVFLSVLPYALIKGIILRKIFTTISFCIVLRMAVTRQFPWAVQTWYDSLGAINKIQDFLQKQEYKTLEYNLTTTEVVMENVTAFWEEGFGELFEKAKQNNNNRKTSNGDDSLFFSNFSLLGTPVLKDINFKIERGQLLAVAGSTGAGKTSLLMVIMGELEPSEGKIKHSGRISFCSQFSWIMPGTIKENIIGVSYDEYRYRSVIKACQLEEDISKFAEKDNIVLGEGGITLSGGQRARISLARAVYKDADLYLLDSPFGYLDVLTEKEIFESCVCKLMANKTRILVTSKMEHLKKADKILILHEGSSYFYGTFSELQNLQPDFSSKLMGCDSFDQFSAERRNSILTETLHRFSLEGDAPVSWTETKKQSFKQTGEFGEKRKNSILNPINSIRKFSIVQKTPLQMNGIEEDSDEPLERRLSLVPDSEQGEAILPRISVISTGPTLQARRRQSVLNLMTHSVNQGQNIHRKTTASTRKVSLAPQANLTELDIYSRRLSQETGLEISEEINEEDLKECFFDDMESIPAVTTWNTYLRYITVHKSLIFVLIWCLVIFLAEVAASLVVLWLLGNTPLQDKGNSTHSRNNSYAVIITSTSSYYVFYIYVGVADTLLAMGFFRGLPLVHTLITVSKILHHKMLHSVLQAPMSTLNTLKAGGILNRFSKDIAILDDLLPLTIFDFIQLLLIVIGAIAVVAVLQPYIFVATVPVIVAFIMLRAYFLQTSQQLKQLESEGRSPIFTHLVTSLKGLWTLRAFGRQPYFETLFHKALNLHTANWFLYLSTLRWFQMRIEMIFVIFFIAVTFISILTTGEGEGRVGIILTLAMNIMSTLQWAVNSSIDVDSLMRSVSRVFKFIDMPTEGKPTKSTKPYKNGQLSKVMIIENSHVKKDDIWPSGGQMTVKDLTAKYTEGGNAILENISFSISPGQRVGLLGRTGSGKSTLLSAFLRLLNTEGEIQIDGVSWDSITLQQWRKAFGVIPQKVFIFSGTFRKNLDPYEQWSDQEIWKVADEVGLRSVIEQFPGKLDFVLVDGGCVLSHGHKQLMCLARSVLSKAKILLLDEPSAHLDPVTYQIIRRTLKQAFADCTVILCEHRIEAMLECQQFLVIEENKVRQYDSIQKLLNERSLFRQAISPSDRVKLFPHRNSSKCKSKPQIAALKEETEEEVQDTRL

COc1c2nc(nc1-c1c(C)cccc1C)NS(=O)(=O)c1cccc(c1)C(=O)N(C1CC3(CC3)C1)[C@H](CC(C)C)CO2 [Compound 179]
Ent. B Max Activity: +++ (+++ is >60%) | EC50: < 1000 nM

Cc1cccc(C)c1-c1nc2nc(c1-c1cnn(C)c1)O[C@H](C)CNC(=O)c1cccc(c1)S(=O)(=O)N2 [Compound 128]
Ent. B Max Activity: + (+ is <30%)

Cc1cccc(C)c1-c1nc2nc(c1C)OC[C@@H](CC(C)(C)C)N(C1CC3(CC(CO)C3)C1)C(=O)c1cccc(c1)S(=O)(=O)N2 (stereo in doubt) [Compound 79]
Ent. B Max Activity: +++ (+++ is >60%) | EC50: < 1000 nM

COCCN1CCC2(CC1)CC(N1C(=O)c3cccc(c3)S(=O)(=O)Nc3nc(c(C)c(-c4c(C)cccc4C)n3)OC[C@H]1CC(C)C)C2 [Compound 55, (11R)-6-(2,6-Dimethylphenyl)-11-isobutyl-12-[7-(2-methoxyethyl)-7-azaspiro[3.5]nonan-2-yl]-7-methyl-2,2-dioxo-9-oxa-2λ^6-thia-3,5,12,19-tetrazatricyclo[12.3.1.14,8]nonadeca-1(18),4(19),5,7,14,16-hexaen-13-one]
Ent. B Max Activity: +++ (+++ is >60%) | EC50: < 1000 nM

Cc1cccc(C)c1-c1nc2nc(c1CO)OC[C@@H](CC(C)C)N(C1CC3(CC3)C1)C(=O)c1cccc(c1)S(=O)(=O)N2 [Compound 170, (11R)-6-(2,6-Dimethylphenyl)-7-(hydroxymethyl)-11-isobutyl-2,2-dioxo-12-spiro[2.3]hexan-5-yl-9-oxa-2λ^6-thia-3,5,12,19-tetrazatricyclo[12.3.1.14,8]nonadeca-1(18),4(19),5,7,14,16-hexaen-13-one]
Ent. B Max Activity: ++ (++ is 30-60%) | EC50: < 1000 nM

Cc1cccc(C)c1-c1nc2nc(c1-c1cccnc1)OC[C@@H](C)NC(=O)c1cccc(c1)S(=O)(=O)N2 [Compound 143]
Ent. B Max Activity: + (+ is <30%)

Cc1cccc(C)c1-c1nc2nc(c1C)OC[C@@H](CC(C)(C)C)N(C1CC3(CC(N)C3)C1)C(=O)c1cccc(c1)S(=O)(=O)N2 (stereo partly drawn) [Compound 96]
Ent. B Max Activity: +++ (+++ is >60%) | EC50: < 1000 nM

Cc1cccc(C)c1-c1nc2nc(c1C)OC[C@@H](CC1(C(F)(F)F)CC1)N(C1CC3(CC(N)C3)C1)C(=O)c1cccc(c1)S(=O)(=O)N2 (stereo partly drawn) [Compound 92]
Ent. B Max Activity: +++ (+++ is >60%) | EC50: < 1000 nM

Cc1cccc(C)c1-c1nc2nc(c1-c1ccncc1)O[C@H](C)CNC(=O)c1cccc(c1)S(=O)(=O)N2 [Compound 132]
Ent. B Max Activity: + (+ is <30%)

Cc1cccc(C)c1-c1nc2nc(c1OC(C)C)OC[C@@H](CC(C)C)N(C1CC3(CC3)C1)C(=O)c1cccc(c1)S(=O)(=O)N2 [Compound 189]
Ent. B Max Activity: +++ (+++ is >60%) | EC50: < 1000 nM

Cc1cccc(C)c1-c1nc2nc(c1-c1cnn(CC(C)C)c1)O[C@H](C)CNC(=O)c1cccc(c1)S(=O)(=O)N2 [Compound 127]
Ent. B Max Activity: +++ (+++ is >60%) | EC50: 1000 to 3000 nM

Cc1cccc(C)c1-c1nc2nc(c1-c1ccn(C)n1)O[C@H](C)CNC(=O)c1cccc(c1)S(=O)(=O)N2 [Compound 129]
Ent. B Max Activity: + (+ is <30%)

Cc1cccc(C)c1-c1nc2nc(c1C)OC[C@@H](CC(C)(C)C)N(C1CC3(CC(N)C3)C1)C(=O)c1cccc(c1)S(=O)(=O)N2 (single isomer, unassigned) [Compound 63]
Ent. B Max Activity: +++ (+++ is >60%) | EC50: < 1000 nM

Cc1cccc(C)c1-c1nc2nc(c1C)OC[C@@H](CC(C)C)N(C1CC3(CCN(C)CC3)C1)C(=O)c1cccc(c1)S(=O)(=O)N2 [Compound 74]
Ent. B Max Activity: +++ (+++ is >60%) | EC50: < 1000 nM

Cc1cccc(C)c1-c1nc2nc(c1C)OC[C@@H](CC1(C(F)(F)F)CC1)N(C1CC3(CC(NC(=O)OC(C)C)C3)C1)C(=O)c1cccc(c1)S(=O)(=O)N2 (stereo in doubt) [Compound 87]
Ent. B Max Activity: +++ (+++ is >60%) | EC50: < 1000 nM

Cc1cccc(C)c1-c1nc2nc(c1C)OC[C@@H](CC(C)(C)C(F)(F)F)N(C1CC3(CCNCC3)C1)C(=O)c1cccc(c1)S(=O)(=O)N2 [Compound 157, (11R)-12-{7-Azaspiro[3.5]nonan-2-yl}-6-(2,6-dimethylphenyl)-7-methyl-11-(3,3,3-trifluoro-2,2-dimethylpropyl)-9-oxa-2λ^6-thia-3,5,12,19-tetraazatricyclo[12.3.1.14,8]nonadeca-1(17),4(19),5,7,14(18),15-hexaene-2,2,13-trione]
Ent. B Max Activity: +++ (+++ is >60%) | EC50: < 1000 nM

Cc1cccc(C)c1-c1nc2nc(c1C)OC[C@@H](CC1(C(F)(F)F)CC1)N(C1CC3(CC(N)C3)C1)C(=O)c1cccc(c1)S(=O)(=O)N2 (stereo partly drawn) [Compound 93]
Ent. B Max Activity: +++ (+++ is >60%) | EC50: < 1000 nM

Cc1cccc(C)c1-c1nc2nc(c1C)OC[C@@H](CC(C)(C)C)N(C1CC3(CC(NC(=O)OC(C)(C)C)C3)C1)C(=O)c1cccc(c1)S(=O)(=O)N2 (single isomer, unassigned) [Compound 59]
Ent. B Max Activity: +++ (+++ is >60%) | EC50: < 1000 nM

Cc1cccc(C)c1-c1nc2nc(c1C)O[C@@H]1CN(C3CC4(CCCCC4)C3)C[C@H]1NC(=O)c1cccc(c1)S(=O)(=O)N2 [Compound 104, (3R,7R)-19-(2,6-dimethylphenyl)-20-methyl-5-{spiro[3.5]nonan-2-yl}-2-oxa-15λ^6-thia-5,8,16,18,21-pentaazatetracyclo[15.3.1.110,14.03,7]docosa-1(21),10,12,14(22),17,19-hexaene-9,15,15-trione]
Ent. B Max Activity: +++ (+++ is >60%) | EC50: < 1000 nM

Cc1ccc(C(F)(F)F)c(C)c1-c1nc2nc(c1C(F)(F)F)OC[C@@H](CC(C)C)NC(=O)c1cccc(c1)S(=O)(=O)N2 [Compound 163, (11R)-6-[2,6-Dimethyl-3-(trifluoromethyl)phenyl]-11-isobutyl-2,2-dioxo-7-(trifluoromethyl)-9-oxa-2λ^6-thia-3,5,12,19-tetrazatricyclo[12.3.1.14,8]nonadeca-1(18),4(19),5,7,14,16-hexaen-13-one]
Ent. B Max Activity: +++ (+++ is >60%) | EC50: < 1000 nM

CCc1c2nc(nc1-c1c(C)cccc1C)NS(=O)(=O)c1cccc(c1)C(=O)N[C@@H]1CN(C3CC4(CCCCC4)C3)C[C@H]1O2 [Compound 115]
Ent. B Max Activity: +++ (+++ is >60%) | EC50: < 1000 nM

Cc1cccc(C)c1-c1nc2nc(c1C)OC[C@@H](CC(C)C)N([C@H]1C[C@@]3(C[C@H](N(C)C)C3)C1)C(=O)c1cccc(c1)S(=O)(=O)N2 (single isomer, unassigned) [Compound 54]
Ent. B Max Activity: +++ (+++ is >60%) | EC50: < 1000 nM

COC(=O)NC1CC2(C1)CC(N1C(=O)c3cccc(c3)S(=O)(=O)Nc3nc(c(C)c(-c4c(C)cccc4C)n3)OC[C@H]1CC(C)C)C2 (stereo in doubt) [Compound 69]
Ent. B Max Activity: +++ (+++ is >60%) | EC50: < 1000 nM

Cc1cccc(C)c1-c1nc2nc(c1C)OC[C@@H](CC(C)(C)C)N(C1CC3(CC(NC(=O)OC(C)C)C3)C1)C(=O)c1cccc(c1)S(=O)(=O)N2 (single isomer, unassigned) [Compound 62]
Ent. B Max Activity: +++ (+++ is >60%) | EC50: < 1000 nM

Cc1cccc(C)c1-c1nc2nc(c1C)OC[C@@H](CCC(C)(C)O)N(Cc1ncccn1)C(=O)c1cccc(c1)S(=O)(=O)N2 [Compound 113]
Ent. B Max Activity: ++ (++ is 30-60%) | EC50: 3000 to 30000 nM

Cc1cccc(C)c1-c1nc2nc(c1C)OC[C@@H](CC(C)(C)C)N(C1CC3(CC(N(C)C)C3)C1)C(=O)c1cccc(c1)S(=O)(=O)N2 (stereo partly drawn) [Compound 95]
Ent. B Max Activity: +++ (+++ is >60%) | EC50: < 1000 nM
